Experimental data as given in US20250205204A1, “Transcription Factor Brn2 Inhibitory Compounds for Use as Therapeutics” (The University of British Columbia, priority 2021, published 2025).

Legend:
[1] = Metabolic stability in liver microsomes (MLM); type: in vitro ADME, mice; settings: 0.25 mg/mL protein
How it was run: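 Mouse liver microsomes (0.25 mg/mL protein) in 50 mM potassium phosphate pH 7.4 at 37 °C with 1 µM compound, 1 mM NADPH, 0.1% DMSO; sampled 0–60 min in duplicate. LC-MS/MS parent depletion gives half-life; CL'int in mL/min/kg scaled with 45 mg protein/g liver, 90 g liver.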

[2] = target: T1, BRN2 (Homo sapiens, UniProt P20265); test: Drug Affinity Responsive Target Stability (DARTS) assay; settings: printed in BLI binding column; 42D^ENZR lysate
T1 sequence (P20265 1-443): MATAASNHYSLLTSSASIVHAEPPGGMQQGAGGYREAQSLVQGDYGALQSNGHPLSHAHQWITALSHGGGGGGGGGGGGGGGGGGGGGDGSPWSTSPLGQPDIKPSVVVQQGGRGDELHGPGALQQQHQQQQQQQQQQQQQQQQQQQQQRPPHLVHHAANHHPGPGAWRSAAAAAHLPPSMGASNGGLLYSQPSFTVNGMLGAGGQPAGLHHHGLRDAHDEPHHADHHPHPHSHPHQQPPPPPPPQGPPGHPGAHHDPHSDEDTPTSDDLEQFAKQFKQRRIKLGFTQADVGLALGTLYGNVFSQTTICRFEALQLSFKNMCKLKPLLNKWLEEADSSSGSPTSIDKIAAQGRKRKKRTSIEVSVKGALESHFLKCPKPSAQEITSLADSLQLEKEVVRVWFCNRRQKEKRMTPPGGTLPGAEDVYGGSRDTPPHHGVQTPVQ
Description: Step 2: Drug Affinity Responsive Target Stability (DARTS) Assay
This in cell assay provides a yes/no answer to direct interaction between BRN2 inhibitor and protein.
1) Prepare and place the following on ice: • Pronase • TNC 10× • 500 mM Tris-HCl (pH 8.0) • 500 mM NaCl, 100 mM CaCl2 • DMSO • Drug • 10 mL NP40+Protease inhibitor+Phosphatase inhibitor solution (can store in 4° C. and use for up to 4 weeks): • 2 mL NP40 5× • 8 mL ddH2O • 1 PhosphoSTOP™ pill • 200 uL protease inhibitor 50×
2) Remove the growth medium from the cell plate (42D^ENZR) and add 10 mL of cold PBS/vanadate.
3) Scrape the cells. Remove the PBS-cell solution and add in a falcon tube.
4) Name a new 1.5 ml Eppendorf tube and put on ice to pre-chill.
5) Centrifuge the cells at 1500 for 5 minutes at 4° C. Remove supernatant and re-suspend the cells in 600 uL NP40 lysis buffer by pipetting up and down. If the cell pellet is small use less volume, for example 300 μl)
6) Transfer the lysing cells into the pre-chilled Eppendorf tube. Incubate on ice for 20 minutes. If not continuing the DARTS on the same day, you can put the lysate in −30 and work on it later.
Preparing Cell Lysates for DARTS:
7) Centrifuge the tube at maximum speed for 25-30 minutes at 4° C.
8) Discard the pellet (either transfer the supernatant in a new tube or just take out the pellet). […]
20) The samples are ready for Western blot gel running. […]

[3] = tested on: 42D^ENZR cells; test: Cell proliferation, BRN2 expressing 42D cells (crystal violet); type: cell-based; settings: 42D (express BRN2) versus 16D (no BRN2) cells, about 72 hours; result in words
How it was run: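 42D^ENZR (~7000/well) and 16D^CRPC (~5000/well) cells plated, compound added next day from 3× media stocks. After ~72 hours, cells fixed with glutaraldehyde, stained with crystal violet, dye eluted in Sorensen solution; absorbance read at 590 nm.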

[4] = tested on: BRN2 transcriptional activity; test: BRN2-luciferase reporter activity in 42D^ENZR cells; type: cell-based; settings: 24 hours
From the text: Step 1: Reporter Activity
Decreased expression of luciferase protein is validated via western blot to confirm downregulation and avoid false positive molecules that inhibit luciferase protein activity and not BRN2-drive luciferase expression. Molecules are prioritized by their inhibition potency to measure direct interaction with BRN2 in Step 2.
In TABLES 1 and 2, in columns Met Stab % and T½, refers to compound's stability in MLM. There is a distinction in TABLES 1 and 2 difference between “Active” and “Specific” or “Specificity”. Some of the compounds were first tested to quantify inhibition of BRN2 transcriptional activity in a luciferase assay to determine BRN2 inhibition at 10 μM and 30 μM concentrations. […] Generally, compounds having low inhibitory activity were compounds with less than about ˜30% or activation at either concentration (i.e. 10 μM or 30 μM). Furthermore, some compounds that lacked specificity could also show off-target effects.

half-life at 1 μM ([1]; mouse, liver microsomes, pH 7.4, 1 μM compound, read-out: T1/2 in mins (MLM)) [h]	Met Stab % (60 mins) MLM ([1]; percent remaining at 60 min, 1 μM compound, 1 mM NADPH) [%]	binding observed using DARTS assay [2]	Structure (SMILES)	Growth Specificity [3]	inhibition at 10 µM ([4]; 10 μM) [%]	inhibition at 30 µM ([4]; 30 μM) [%]
> 1	78	DARTS- good binding	FC(F)(F)c1ccc2c(c1)/C(=N\Nc1nc3ccccc3s1)CC2 [7-36]	Specific to 42D, but weak activity		
			c1ccc2c(c1)CC/C2=N\Nc1ccc2ccccc2n1 [VPC-39]	non-specific	99	99.9
